Measured values published in US3985764A, “Production of fused oxazoline azetidinones” (Queen's University, priority 1974, dated 1976).

Tested on: S. lutea
Assay: antibacterial activity vs. S. lutea (plate assay)
Type: cell-based
Conditions: versus S. lutea

**Q.** For CC1(C)O[C@@H]2[C@H](N3C(=O)c4ccccc4C3=O)C(=O)N2[C@H]1C(=O)O [6-phthalimido oxapenicillin], which “antibacterial activity relative to phthalimidopenicillin” value is on record?
**A.** The value was “one-tenth the level of phthalimidopenicillin”.
